Results: the kinase profiling compilation of Christmann-Franck et al. (2016)

Experiments:
Assay in all cases: radiometric filter-binding kinase assay, Kinaseprofiler
NTRK2 (human) = NTRK2 (human) (UniProt Q16620); conditions: ATP 90 µM
STK4 (human) = STK4 (human) (UniProt Q13043); conditions: ATP 90 µM
[1] = system: BRSK2 (human), Q8IWQ3 [S251I]; conditions: ATP 70 µM
MAPK13 (human) = MAPK13 (human) (UniProt O15264); conditions: ATP 15 µM
SRPK2 (human) = SRPK2 (human) (UniProt P78362); conditions: ATP 10 µM
[2] = target: JAK2 JH1 catalytic (human) (UniProt O60674); conditions: ATP 45 µM
LYN (human) = LYN (human) (UniProt P07948); conditions: ATP 70 µM
ROCK2 (human) = ROCK2 (human) (UniProt O75116); conditions: ATP 15 µM
FER (human) = FER (human) (UniProt P16591); conditions: ATP 70 µM
STK24 (human) = STK24 (human) (UniProt Q9Y6E0); conditions: ATP 15 µM
AURKB (human) = AURKB (human) (UniProt Q96GD4); conditions: ATP 10 µM
CDK5 CDK5R1 p25 (human) = CDK5 CDK5R1 p25 (human) (UniProt Q00535+Q15078); conditions: ATP 15 µM
SGK3 (human) = SGK3 (human) (UniProt Q96BR1); conditions: ATP 155 µM
ULK3 (human) = ULK3 (human) (UniProt Q6PHR2); conditions: ATP 10 µM
CAMK2B (human) = CAMK2B (human) (UniProt Q13554); conditions: ATP 15 µM
NEK11 (human) = NEK11 (human) (UniProt Q8NG66); conditions: ATP 200 µM
MAP2K7 (human) = MAP2K7 (human) (UniProt O14733); conditions: ATP 10 µM
PKN2 (human) = PKN2 (human) (UniProt Q16513); conditions: ATP 15 µM
ZAP70 (human) = ZAP70 (human) (UniProt P43403); conditions: ATP 15 µM
CSNK1G1 (human) = CSNK1G1 (human) (UniProt Q9HCP0); conditions: ATP 15 µM
CAMK1D (human) = CAMK1D (human) (UniProt Q8IU85); conditions: ATP 15 µM
PTK6 (human) = PTK6 (human) (UniProt Q13882); conditions: ATP 15 µM
SIK1 (human) = SIK1 (human) (UniProt P57059); conditions: ATP 45 µM
INSRR (human) = INSRR (human) (UniProt P14616); conditions: ATP 200 µM
PRKCD (human) = PRKCD (human) (UniProt Q05655); conditions: ATP 15 µM
PRKCQ (human) = PRKCQ (human) (UniProt Q04759); conditions: ATP 15 µM
PIM2 (human) = PIM2 (human) (UniProt Q9P1W9); conditions: ATP 15 µM
MINK1 (human) = MINK1 (human) (UniProt Q8N4C8); conditions: ATP 185 µM
PDGFRB (human) = PDGFRB (human) (UniProt P09619); conditions: ATP 200 µM
EPHB1 (human) = EPHB1 (human) (UniProt P54762); conditions: ATP 200 µM
CSK (human) = CSK (human) (UniProt P41240); conditions: ATP 15 µM
EPHA1 (human) = EPHA1 (human) (UniProt P21709); conditions: ATP 45 µM
PRKCB1 (human) = PRKCB1 (human) (UniProt P05771); conditions: ATP 10 µM

MAPK13 (human), sequence (O15264 whole entry, looked up): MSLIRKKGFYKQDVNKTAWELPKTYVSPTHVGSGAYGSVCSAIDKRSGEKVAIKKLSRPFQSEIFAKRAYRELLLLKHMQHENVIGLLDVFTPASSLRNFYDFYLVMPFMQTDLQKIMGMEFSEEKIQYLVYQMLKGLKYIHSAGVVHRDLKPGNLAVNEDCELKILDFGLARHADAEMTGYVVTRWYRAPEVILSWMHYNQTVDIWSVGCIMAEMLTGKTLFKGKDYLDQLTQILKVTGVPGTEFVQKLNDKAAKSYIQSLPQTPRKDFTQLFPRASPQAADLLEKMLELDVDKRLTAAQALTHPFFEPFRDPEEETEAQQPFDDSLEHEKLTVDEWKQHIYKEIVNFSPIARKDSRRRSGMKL
INSRR (human), sequence (P14616 whole entry, looked up): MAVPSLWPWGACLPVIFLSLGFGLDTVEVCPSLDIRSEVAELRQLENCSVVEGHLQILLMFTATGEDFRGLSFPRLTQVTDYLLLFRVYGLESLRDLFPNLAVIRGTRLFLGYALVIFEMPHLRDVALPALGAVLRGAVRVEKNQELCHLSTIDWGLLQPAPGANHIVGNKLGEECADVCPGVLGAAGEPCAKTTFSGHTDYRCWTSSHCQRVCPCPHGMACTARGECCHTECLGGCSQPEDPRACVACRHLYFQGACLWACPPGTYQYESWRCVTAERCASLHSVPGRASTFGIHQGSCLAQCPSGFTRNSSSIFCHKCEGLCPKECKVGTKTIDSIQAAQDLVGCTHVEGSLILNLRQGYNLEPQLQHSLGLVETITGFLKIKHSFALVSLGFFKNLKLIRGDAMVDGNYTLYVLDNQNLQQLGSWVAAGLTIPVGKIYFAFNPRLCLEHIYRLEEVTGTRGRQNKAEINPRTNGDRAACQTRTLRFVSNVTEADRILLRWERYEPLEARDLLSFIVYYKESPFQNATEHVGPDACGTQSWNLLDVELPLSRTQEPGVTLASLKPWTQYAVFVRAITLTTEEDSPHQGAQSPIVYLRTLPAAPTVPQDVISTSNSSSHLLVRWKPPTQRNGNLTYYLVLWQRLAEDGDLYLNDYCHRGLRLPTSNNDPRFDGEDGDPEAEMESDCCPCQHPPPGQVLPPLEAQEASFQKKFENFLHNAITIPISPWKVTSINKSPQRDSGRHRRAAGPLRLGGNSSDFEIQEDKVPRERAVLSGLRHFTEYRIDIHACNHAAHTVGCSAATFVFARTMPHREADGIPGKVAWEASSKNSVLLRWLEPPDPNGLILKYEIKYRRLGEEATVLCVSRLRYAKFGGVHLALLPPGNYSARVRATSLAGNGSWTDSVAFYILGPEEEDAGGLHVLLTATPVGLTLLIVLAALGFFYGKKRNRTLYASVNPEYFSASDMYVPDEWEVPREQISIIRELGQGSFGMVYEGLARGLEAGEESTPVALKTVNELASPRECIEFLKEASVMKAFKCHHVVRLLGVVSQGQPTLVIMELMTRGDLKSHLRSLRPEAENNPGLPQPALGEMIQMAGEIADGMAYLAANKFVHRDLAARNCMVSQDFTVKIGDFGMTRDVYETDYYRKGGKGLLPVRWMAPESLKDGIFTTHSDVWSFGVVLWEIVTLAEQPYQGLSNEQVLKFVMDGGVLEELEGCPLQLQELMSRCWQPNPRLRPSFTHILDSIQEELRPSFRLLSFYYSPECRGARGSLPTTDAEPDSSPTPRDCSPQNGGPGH
JAK2 JH1 catalytic (human), sequence (O60674 whole entry, looked up): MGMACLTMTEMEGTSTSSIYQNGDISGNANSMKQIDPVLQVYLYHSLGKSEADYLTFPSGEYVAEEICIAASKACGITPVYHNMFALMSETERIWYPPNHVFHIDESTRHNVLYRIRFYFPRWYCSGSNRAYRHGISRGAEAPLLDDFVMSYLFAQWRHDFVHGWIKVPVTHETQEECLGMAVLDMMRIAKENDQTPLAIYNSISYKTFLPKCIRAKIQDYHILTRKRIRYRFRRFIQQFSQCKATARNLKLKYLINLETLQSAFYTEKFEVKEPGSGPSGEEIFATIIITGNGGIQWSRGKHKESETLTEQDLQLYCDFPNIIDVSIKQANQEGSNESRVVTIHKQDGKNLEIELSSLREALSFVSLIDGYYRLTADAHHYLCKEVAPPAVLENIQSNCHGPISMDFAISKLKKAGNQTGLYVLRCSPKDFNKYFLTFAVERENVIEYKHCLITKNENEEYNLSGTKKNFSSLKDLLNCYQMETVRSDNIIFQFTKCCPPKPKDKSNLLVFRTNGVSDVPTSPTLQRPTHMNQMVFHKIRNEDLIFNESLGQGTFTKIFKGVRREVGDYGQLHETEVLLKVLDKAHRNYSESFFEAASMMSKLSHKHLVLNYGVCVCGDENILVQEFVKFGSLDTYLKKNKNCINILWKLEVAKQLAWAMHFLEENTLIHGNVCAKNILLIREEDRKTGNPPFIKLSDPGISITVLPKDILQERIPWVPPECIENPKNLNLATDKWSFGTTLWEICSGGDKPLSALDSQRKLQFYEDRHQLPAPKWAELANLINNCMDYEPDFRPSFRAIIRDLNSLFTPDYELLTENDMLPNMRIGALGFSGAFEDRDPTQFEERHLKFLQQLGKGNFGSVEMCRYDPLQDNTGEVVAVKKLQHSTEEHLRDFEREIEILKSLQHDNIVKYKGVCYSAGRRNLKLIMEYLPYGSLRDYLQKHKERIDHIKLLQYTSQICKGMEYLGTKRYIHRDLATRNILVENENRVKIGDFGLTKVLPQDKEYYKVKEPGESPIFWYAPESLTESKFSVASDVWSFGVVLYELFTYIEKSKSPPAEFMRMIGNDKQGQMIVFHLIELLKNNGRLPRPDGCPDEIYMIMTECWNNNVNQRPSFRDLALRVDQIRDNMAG
EPHA1 (human), sequence (P21709 whole entry, looked up): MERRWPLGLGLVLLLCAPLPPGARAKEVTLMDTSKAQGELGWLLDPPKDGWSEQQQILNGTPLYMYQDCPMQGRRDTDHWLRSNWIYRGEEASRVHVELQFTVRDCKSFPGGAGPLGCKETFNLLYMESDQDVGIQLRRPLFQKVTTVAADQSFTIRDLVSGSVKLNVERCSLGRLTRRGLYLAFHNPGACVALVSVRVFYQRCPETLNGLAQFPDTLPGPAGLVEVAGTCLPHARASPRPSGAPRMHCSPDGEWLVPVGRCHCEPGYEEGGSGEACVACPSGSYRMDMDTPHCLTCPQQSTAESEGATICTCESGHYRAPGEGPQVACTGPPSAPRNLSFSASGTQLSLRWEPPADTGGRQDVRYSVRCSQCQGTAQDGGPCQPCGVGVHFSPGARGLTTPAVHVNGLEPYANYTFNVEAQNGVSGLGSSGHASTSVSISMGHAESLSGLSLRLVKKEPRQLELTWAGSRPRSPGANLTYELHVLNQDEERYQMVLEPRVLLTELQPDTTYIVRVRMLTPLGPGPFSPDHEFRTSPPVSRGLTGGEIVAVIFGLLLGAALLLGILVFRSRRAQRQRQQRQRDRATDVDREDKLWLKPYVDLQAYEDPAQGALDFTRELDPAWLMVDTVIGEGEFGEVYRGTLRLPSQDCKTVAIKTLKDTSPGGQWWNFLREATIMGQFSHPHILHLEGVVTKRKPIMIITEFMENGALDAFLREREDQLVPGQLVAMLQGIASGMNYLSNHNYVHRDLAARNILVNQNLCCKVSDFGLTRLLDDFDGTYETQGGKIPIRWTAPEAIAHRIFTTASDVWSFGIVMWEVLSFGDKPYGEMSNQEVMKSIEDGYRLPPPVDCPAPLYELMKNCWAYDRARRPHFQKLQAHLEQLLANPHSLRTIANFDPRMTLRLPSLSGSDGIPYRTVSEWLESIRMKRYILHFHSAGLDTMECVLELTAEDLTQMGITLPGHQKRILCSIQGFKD
AURKB (human), sequence (Q96GD4 whole entry, looked up): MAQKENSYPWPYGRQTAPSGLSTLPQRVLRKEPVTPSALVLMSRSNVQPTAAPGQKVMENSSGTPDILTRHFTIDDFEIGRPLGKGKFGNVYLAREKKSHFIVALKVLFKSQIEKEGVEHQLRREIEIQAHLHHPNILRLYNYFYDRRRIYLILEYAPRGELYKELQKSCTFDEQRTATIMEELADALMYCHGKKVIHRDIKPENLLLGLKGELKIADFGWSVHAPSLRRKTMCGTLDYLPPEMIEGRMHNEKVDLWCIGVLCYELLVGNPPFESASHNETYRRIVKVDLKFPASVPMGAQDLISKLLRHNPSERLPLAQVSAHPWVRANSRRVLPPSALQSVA
PRKCQ (human), sequence (Q04759 whole entry, looked up): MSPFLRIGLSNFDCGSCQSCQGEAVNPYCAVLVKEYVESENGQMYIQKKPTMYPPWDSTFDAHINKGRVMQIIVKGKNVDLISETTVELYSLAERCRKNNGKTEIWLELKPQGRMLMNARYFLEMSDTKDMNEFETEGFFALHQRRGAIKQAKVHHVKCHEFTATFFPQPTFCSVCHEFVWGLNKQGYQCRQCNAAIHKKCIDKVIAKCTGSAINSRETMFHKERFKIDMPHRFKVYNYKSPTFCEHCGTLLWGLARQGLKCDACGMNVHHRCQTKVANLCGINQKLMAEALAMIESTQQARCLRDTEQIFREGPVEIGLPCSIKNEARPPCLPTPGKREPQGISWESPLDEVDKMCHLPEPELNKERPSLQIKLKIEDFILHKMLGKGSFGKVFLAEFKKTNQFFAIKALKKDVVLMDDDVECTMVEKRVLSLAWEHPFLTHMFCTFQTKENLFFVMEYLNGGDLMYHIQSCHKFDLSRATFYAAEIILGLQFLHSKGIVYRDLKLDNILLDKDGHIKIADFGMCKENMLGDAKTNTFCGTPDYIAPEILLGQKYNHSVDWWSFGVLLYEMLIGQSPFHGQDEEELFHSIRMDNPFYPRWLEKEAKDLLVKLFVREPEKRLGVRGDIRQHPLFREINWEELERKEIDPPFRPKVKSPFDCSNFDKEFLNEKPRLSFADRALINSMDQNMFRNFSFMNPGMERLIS

residual activity (NTRK2 (human); compound 1.0 µM): 0%
residual activity (NTRK2 (human); compound 10.0 µM): 0%
residual activity (STK4 (human); compound 1.0 µM): 8%
residual activity (STK4 (human); compound 10.0 µM): 2%
residual activity ([1]; compound 1.0 µM): 10%
residual activity ([1]; compound 10.0 µM): 5%
residual activity (MAPK13 (human); compound 1.0 µM): 90%
residual activity (MAPK13 (human); compound 10.0 µM): 82%
residual activity (SRPK2 (human); compound 1.0 µM): 96%
residual activity (SRPK2 (human); compound 10.0 µM): 67%
residual activity ([2]; compound 1.0 µM): 92%
residual activity ([2]; compound 10.0 µM): 11%
residual activity (LYN (human); compound 1.0 µM): 8%
residual activity (LYN (human); compound 10.0 µM): 2%
residual activity (ROCK2 (human); compound 1.0 µM): 85%
residual activity (ROCK2 (human); compound 10.0 µM): 82%
residual activity (FER (human); compound 1.0 µM): 70%
residual activity (FER (human); compound 10.0 µM): 53%
residual activity (STK24 (human); compound 1.0 µM): 42%
residual activity (STK24 (human); compound 10.0 µM): 10%
residual activity (AURKB (human); compound 1.0 µM): 1%
residual activity (AURKB (human); compound 10.0 µM): -2%
residual activity (CDK5 CDK5R1 p25 (human); compound 1.0 µM): 3%
residual activity (CDK5 CDK5R1 p25 (human); compound 10.0 µM): 2%
residual activity (SGK3 (human); compound 1.0 µM): 89%
residual activity (SGK3 (human); compound 10.0 µM): 56%
residual activity (ULK3 (human); compound 1.0 µM): 55%
residual activity (ULK3 (human); compound 10.0 µM): 12%
residual activity (CAMK2B (human); compound 1.0 µM): 33%
residual activity (CAMK2B (human); compound 10.0 µM): 11%
residual activity (NEK11 (human); compound 1.0 µM): 70%
residual activity (NEK11 (human); compound 10.0 µM): 18%
residual activity (MAP2K7 (human); compound 1.0 µM): 52%
residual activity (MAP2K7 (human); compound 10.0 µM): 7%
residual activity (PKN2 (human); compound 1.0 µM): 91%
residual activity (PKN2 (human); compound 10.0 µM): 48%
residual activity (ZAP70 (human); compound 1.0 µM): 79%
residual activity (ZAP70 (human); compound 10.0 µM): 91%
residual activity (CSNK1G1 (human); compound 1.0 µM): 57%
residual activity (CSNK1G1 (human); compound 10.0 µM): 19%
residual activity (CAMK1D (human); compound 1.0 µM): 71%
residual activity (CAMK1D (human); compound 10.0 µM): 56%
residual activity (PTK6 (human); compound 1.0 µM): 91%
residual activity (PTK6 (human); compound 10.0 µM): 23%
residual activity (SIK1 (human); compound 1.0 µM): 43%
residual activity (SIK1 (human); compound 10.0 µM): 8%
residual activity (INSRR (human); compound 1.0 µM): 2%
residual activity (INSRR (human); compound 10.0 µM): 1%
residual activity (PRKCD (human); compound 1.0 µM): 85%
residual activity (PRKCD (human); compound 10.0 µM): 80%
residual activity (PRKCQ (human); compound 1.0 µM): 81%
residual activity (PRKCQ (human); compound 10.0 µM): 55%
residual activity (PIM2 (human); compound 1.0 µM): 68%
residual activity (PIM2 (human); compound 10.0 µM): 38%
residual activity (MINK1 (human); compound 1.0 µM): 54%
residual activity (MINK1 (human); compound 10.0 µM): 10%
residual activity (PDGFRB (human); compound 1.0 µM): 84%
residual activity (PDGFRB (human); compound 10.0 µM): 26%
residual activity (EPHB1 (human); compound 1.0 µM): 59%
residual activity (EPHB1 (human); compound 10.0 µM): 13%
residual activity (CSK (human); compound 1.0 µM): 101%
residual activity (CSK (human); compound 10.0 µM): 78%
residual activity (EPHA1 (human); compound 1.0 µM): 55%
residual activity (EPHA1 (human); compound 10.0 µM): 61%
residual activity (PRKCB1 (human); compound 1.0 µM): 93%
residual activity (PRKCB1 (human); compound 10.0 µM): 94%
SMILES: O=C1Nc2ccccc2/C1=C1\Nc2ccccc2\C1=N/O
